Experimental data taken from patent publication US8722642B2, “Multiantivirus compound, composition and method for treatment of virus diseases” (Biocell Laboratories, priority 2011, dated 2014).

What was measured:
[1] = test system: hemagglutinin of influenza virus AFM 1/47 (H1N1); assay: Hemagglutination reaction: influence on hemagglutinin activity of influenza virus; format: biochemical
[2] = test system: influenza virus A/FM/1/47(H1N1), adapted for lungs of white mice; assay: Model of influenza pneumonia in mice; format: in vivo; settings: Tamiflu, dose not given, intra-abdominal

Compound	Difference in virus titers ([1]; concentration 10 mg/ml)	Virus titer in the experiment ([1]; concentration 10 mg/ml, […])	further results
OC[C@@H](O)[C@@H](O)[C@H](O)[C@H](O)CO [Mannitol]			Difference in the virus titers ([1]; 0.5 mg/ml, temperature of reaction 30 ° C.): 0 log2x; Virus titer in the experiment ([1]; 0.5 mg/ml, temperature of reaction 30 ° C., control virus 8): 8 log2x
CCOC(=O)C1=C[C@@H](OC(CC)CC)[C@H](NC(C)=O)[C@@H](N)C1 [Tamiflu, Oseltamivir]			% died ([2]; preventive regimen): 30 ± 1.0%; CP (Coefficient of protection) ([2]; preventive regimen): 5.0; IE (Index of effectiveness) ([2]; preventive regimen): 70.0; % died ([2]; treatment regimen): 20.0 ± 0.5%; CP (Coefficient of protection) ([2]; treatment regimen): 10.0; IE (Index of effectiveness) ([2]; treatment regimen): 80.0
Poliguanylic acid [Poly G]	0 lg2^X	9 lg2^X	
Polyadenylic acid [Poly A]	2 lg2^X	7 lg2^X	
Polycytydilic acid [Poly C]	2 lg2^X	7 lg2^X	
Polyinosinic:polycytidylic acid [PolyIC]	3 lg2^X	9 lg2^X	
Polyinosylic acid [Poly I]	3 lg2^X	6 lg2^X	
Polyurydylic acid [Poly U]	2 lg2^X	9 lg2^X	
